Results taken from patent US8697387B2, “Methods for identifying agents and their use for the prevention of restenosis” (DiscoverRx Corporation, priority 2006, dated 2014).
Structures can show the parent of a compound that is named as a salt. *1 amine or outer side, *2 acyl side, *3 side chain or, on linkers, in order; H or OH if unused. Where a SMILES comes first, the peptide text is derived from it. Bridges are numbered along the chain shown (N, C = ends). Roman numbers before positions name the chains, in order. [ ]: non-standard residue; d: D form. Actinocin(9to1) = Cc1c2oc3c(C)ccc(C(=O)[*:1])c3nc-2c(C(=O)[*:2])c(N)c1=O; NMeV = CN[C@H](C(=O)O)C(C)C; Sar = CNCC(=O)O

How the values were obtained:
[1] = tested on: BioMAP Systems (human primary cell-based assay systems: endothelial cells, smooth muscle cells, PBMC, fibroblasts); experiment: BioMAP Systems screen scored for desired anti-restenosis parameter modulation; conditions: for Total score for desired parameter modulation, Score (out of 45): 1 point per desired activity present across BioMAP systems of Table 2, paclitaxel average of 11 runs, rapamycin average of 13 runs
From the text: The BioMAP Systems that model the relevant biological processes (smooth muscle cell hyperplasia, tissue remodeling, inflammation etc, including the measurements of readout parameters listed in Table 1), and are used for screening are listed in Table 2. Each of the cells listed in Table 1 can be utilized in one or more of the systems described below. For example, smooth muscle cells are used in CASM3C; CASMNo; SM3C and SMNo systems. Such BioMap systems are generally primary human cell based assays. Compounds are screened in one or more such BioMap systems, usually in at least about two such systems, and may be screened in at least three, at least four, at least five, at least ten, and up to all of the assays set forth in Table 2.
These assays are scored according to their modulation of the selected readout parameters.
Human umbilical vein endothelial cells (HUVEC) were pooled from multiple donors, cultured according to standard methods, and plated into microtiter plates at passage 4. Human neonatal foreskin fibroblasts (HDF) from 3 donors were pooled and cultured according to standard methods. 24 hr before stimulation with cytokines, confluent HDF in microtitre plates were serum starved. Coronary artery endothelial cells (CAEC), coronary artery smooth muscle cells (CASMC) and umbilical artery smooth muscle cells (SMC) cultured according to standard methods. Peripheral blood mononuclear cells (PBMC) were prepared from buffy coats from normal human donors according to standard methods. Concentrations/amounts of agents added to confluent microtitre plates to build each system were as follows: cytokines (IL-1 beta, 1 ng/ml; TNF-alpha, 5 ng/ml; IFN-gamma, 20 ng/ml; TGF-beta, 5 ng/ml; IL-4, 5 ng/ml), activators (histamine, 10 microM; SAg, 20 ng/ml or LPS, 0.2 ng/ml), PBMC (7.5×10^4 cells/well).
Compounds were prepared in the solvent as directed, added 1 hr before stimulation of the cells, and were present during the 24 hr stimulation period for the measurement of parameters listed in Table 2. For proliferation, compounds added 1 hr before stimulation of the cells with cytokines, and were present during the 96 hr. If prepared in DMSO, the final concentration of solvent was 0.1% or less.
The levels of readout parameters were measured by ELISA. Briefly, microtiter plates are treated, blocked, and then incubated with primary antibodies or isotype control antibodies (0.01-0.5 microg/ml) for 1 hr. After washing, plates were incubated with a peroxidase-conjugated anti-mouse IgG secondary antibody or a biotin-conjugated anti-mouse IgG antibody for 1 hr followed by streptavidin-HRP for 30 min. Plates were washed and developed with TMB substrate and the absorbance (OD) was read at 450 nm (subtracting the background absorbance at 650 nm). Quantitation of TNF-alpha in the LPS system was done using a commercially available kit according to the manufacturer's directions. Proliferation of endothelial cells (HUVEC and CAEC), smooth muscle cels (SMC and CASMC), and PBMC (T cells) was quantitated by Alamar blue or SRB reduction.
Mean OD values for each parameter were calculated from triplicate samples per experiment. The mean value obtained for each parameter in a treated sample was then divided by the mean value from an appropriate control to generate a ratio. All ratios were then log10 transformed. 99% prediction envelopes (grey shading in Figures) were calculated for historical controls.

[2] = tested on: BioMAP Systems cells (SRB total protein, PBMC viability, cell morphology); experiment: Toxicity assessments in BioMAP Systems (SRB, PI, visual)
Method: Adverse effects of compounds on cells were determined by (1) measuring alterations in total protein (Sulforodhamine B or SRB assay); (2) measuring the viability of peripheral blood mononuclear cells (incorporation of propidium iodide, PI); and (3) microscopic visualization. SRB was performed by staining cells with 0.1% sulforhodamine B after fixation with 10% TCA, and reading wells at 560 nm. PBMC viability was assessed by adding propidium iodide (10 microgram/ml) to PBMC that had been cultured for 24 hours in the presence of activators and measuring the percentage of cells that incorporated dye by flow cytometry after 10 minutes. Samples were assessed visually according to the following scheme: 2.0=cobblestone (unactivated phenotype); 1.0=activated (normal phenotype); 0.5=lacy or sparse; 0.375=rounded; 0.25=sparse and granular; 0.1=no cells in well.
Cellular toxicity in BioMAP Systems is indicated if the SRB parameter (sulforhodamine B, measure of total protein loss) is <−0.3, the PI parameter (propidium iodine, measure of lymphotoxicity) is <−0.1, and the Visual parameter (change in cell morphology) is <−0.6.

[3] = tested on: neointimal hyperplasia after balloon vascular injury; conditions: rat; reported by Pan et al., 2003; cited from earlier work
[4] = tested on: smooth muscle cell proliferation relative to endothelial cell proliferation; experiment: Proliferation of smooth muscle cells relative to endothelial cells in BioMAP systems 3C, SM3C, CANo, CASMNO, CA3C, CASM3C; assay type: cell-based, human; conditions: all conditions, all doses tested, independent of source of primary cells
From the text: One can further refine the selection of drugs for the treatment of restenosis by measuring their relative effects at multiple doses on proliferation of smooth muscle cells and endothelial cells derived from different sources (umbilical cord or coronary artery), and under different growth conditions (proliferation driven by growth factors only, or in the presence of pro-inflammatory factors that are normally found at the restenotic site). Statistical analysis of cell proliferation in BioMAP systems 3C, SM3C, CANo, CASMNO, CA3C, and CASM3C listed in Table 1 was performed for candidate drugs 8-Azaguanine, Amodiaquin Dihydrochloride Dihydrate, Atovaquone, Ciclopirox, Cis-(Z)-Flupentixol Dihydrochloride, Clofilium Tosylate, Monobenzone, Primaquine Diphosphate, Securinine, Syrosingopine, Terconazole, and Trimethylcolchicinic Acid. […]
The levels of readout parameters were measured by ELISA. […] Plates were washed and developed with TMB substrate and the absorbance (OD) was read at 450 nm (subtracting the background absorbance at 650 nm). Quantitation of TNF-alpha in the LPS system was done using a commercially available kit according to the manufacturer's directions. Proliferation of endothelial cells (HUVEC and CAEC), smooth muscle cels (SMC and CASMC), and PBMC (T cells) was quantitated by Alamar blue or SRB reduction. […]

C[C@]12CC[C@@H]3c4ccc(O)cc4CC[C@H]3[C@@H]1CC[C@@H]2O [17beta-estradiol]
Doses at which inactive in BioMAP Systems (lower than) [1]: < 3.3 µM | Dose showing signs of cellular toxicity ([2]; human): 10 µM

Cc1c2oc3c(C)ccc(C(=O)N[C@@H]4C(=O)N[C@H](C(C)C)C(=O)N5CCC[C@H]5C(=O)N(C)CC(=O)N(C)[C@@H](C(C)C)C(=O)O[C@@H]4C)c3nc-2c(C(=O)N[C@@H]2C(=O)N[C@H](C(C)C)C(=O)N3CCC[C@H]3C(=O)N(C)CC(=O)N(C)[C@@H](C(C)C)C(=O)O[C@@H]2C)c(N)c1=O [Actinomycin D] (I: T[dV]P[Sar][NMeV] / II: T[dV]P[Sar][NMeV]; ester I:1-I:C, II:1-II:C; linker I:N-II:N via Actinocin(9to1))
Doses at which inactive in BioMAP Systems (lower than) [1]: < 0.0005 µM | Dose showing signs of cellular toxicity ([2]; BioMAP Systems): 0.004572 µM

CCN(CC)Cc1cc(Nc2ccnc3cc(Cl)ccc23)ccc1O [Amodiaquin Dihydrochloride Dihydrate]
Total score for desired parameter modulation, Score (out of 45) [1]: 23

O=C1C(O)=C([C@H]2CC[C@H](c3ccc(Cl)cc3)CC2)C(=O)c2ccccc21 [Atovaquone]
Total score for desired parameter modulation, Score (out of 45) [1]: 22

C=C(C)[C@@H]1CC[C@]2(CO)CC[C@]3(C)[C@H](CC[C@@H]4[C@@]5(C)CC[C@H](O)C(C)(C)[C@@H]5CC[C@]43C)[C@@H]12 [Betulin]
Total score for desired parameter modulation, Score (out of 45) [1]: 31

O=C(O)CCCc1ccc(N(CCCl)CCCl)cc1 [Chlorambucil]
Total score for desired parameter modulation, Score (out of 45) [1]: 30

Cc1cc(C2CCCCC2)n(O)c(=O)c1 [Ciclopirox Ethanolamine]
Total score for desired parameter modulation, Score (out of 45) [1]: 20

Cl.Cl.OCCN1CCN(CC/C=C2/c3ccccc3Sc3ccc(C(F)(F)F)cc32)CC1 [Cis-(Z)-Flupentixol Dihydrochloride]
Total score for desired parameter modulation, Score (out of 45) [1]: 33

CC(=O)N(O)CCCCCNC(=O)CCC(=O)N(O)CCCCCNC(=O)CCC(=O)N(O)CCCCCN [Deferoxamine Mesylate]
Total score for desired parameter modulation, Score (out of 45) [1]: 26

COc1cc2nc(N3CCN(C(=O)C4COc5ccccc5O4)CC3)nc(N)c2cc1OC (stereo not drawn) [Doxazosin Mesylate]
Total score for desired parameter modulation, Score (out of 45) [1]: 22

Nc1nc2nn[nH]c2c(=O)[nH]1 [Drug 8-Azaguanine, 8-Azaguanine]
Total score for desired parameter modulation, Score (out of 45) [1]: 28

O=c1ccc2cc(O)c(O)cc2o1 [Esculetin]
Effect on neointimal hyperplasia after balloon vascular injury [3]: inhibit neointimal hyperplasia | Total score for desired parameter modulation, Score (out of 45) [1]: 25

Oc1ccc(OCc2ccccc2)cc1 [Monobenzene]
Total score for desired parameter modulation, Score (out of 45) [1]: 24

COC(=O)C1=C(C)NC(C)=C(C(=O)OC)C1c1ccccc1[N+](=O)[O-] [Nifedipine]
Total score for desired parameter modulation, Score (out of 45) [1]: 28

CC(=O)O[C@H]1C(=O)[C@@]2(C)[C@H]([C@H](OC(=O)c3ccccc3)[C@]3(O)C[C@H](OC(=O)[C@H](O)[C@@H](NC(=O)c4ccccc4)c4ccccc4)C(C)=C1C3(C)C)[C@]1(OC(C)=O)CO[C@@H]1C[C@@H]2O [Paclitaxel]
Total score for desired parameter modulation, Score (out of 45) [1]: 26 ± 2 | Activity over tested dose range in BioMAP Systems ([1]; tested doses): active over the entire dose range | Signs of toxicity in BioMAP Systems [2]: no signs of toxicity

COc1cc(NC(C)CCCN)c2ncccc2c1 (stereo not drawn) [Primaquine Diphosphate]
Total score for desired parameter modulation, Score (out of 45) [1]: 27

CO[C@H]1C[C@@H]2CC[C@@H](C)[C@@](O)(O2)C(=O)C(=O)N2CCCC[C@H]2C(=O)O[C@H]([C@H](C)C[C@@H]2CC[C@@H](O)[C@H](OC)C2)CC(=O)[C@H](C)/C=C(\C)[C@@H](O)[C@@H](OC)C(=O)[C@H](C)C[C@H](C)/C=C/C=C/C=C/1C [Rapamycin]
Total score for desired parameter modulation, Score (out of 45) [1]: 24 ± 1 | Signs of toxicity in BioMAP Systems [2]: no signs of toxicity

O=C1C=C2C=C[C@@H]3C[C@@]2(O1)[C@H]1CCCCN31 [Securinine]
Total score for desired parameter modulation, Score (out of 45) [1]: 28

CCOC(=O)Oc1c(OC)cc(C(=O)O[C@@H]2C[C@@H]3CN4CCc5c([nH]c6cc(OC)ccc56)[C@H]4C[C@@H]3[C@H](C(=O)OC)[C@H]2OC)cc1OC [Syrosingopine]
Total score for desired parameter modulation, Score (out of 45) [1]: 22

CC(C)N1CCN(c2ccc(OCC3COC(Cn4cncn4)(c4ccc(Cl)cc4Cl)O3)cc2)CC1 (stereo not drawn) [Terconazole]
Total score for desired parameter modulation, Score (out of 45) [1]: 22

COc1cc2c(c(OC)c1OC)-c1ccc(O)c(=O)cc1C(N)CC2 (stereo not drawn) [Trimethylcolchicinic Acid]
Total score for desired parameter modulation, Score (out of 45) [1]: 29 | Preferential effect on smooth muscle cell versus endothelial cell proliferation [4]: preferential effect on smooth muscle cells over endothelial cells

C[C@@H]1C[C@H]2[C@@H]3CCC4=CC(=O)C=C[C@]4(C)[C@@]3(F)[C@@H](O)C[C@]2(C)[C@@]1(O)C(=O)CO [dexamethasone]
Signs of toxicity in BioMAP Systems [2]: no signs of toxicity

Clofilium Tosylate
Total score for desired parameter modulation, Score (out of 45) [1]: 22
